The values that follow come from US8604042B2, “Bi-aryl meta-pyrimidine inhibitors of kinases” (TargeGen, Inc., priority 2005, dated 2013).

SMILES strings stand for the structures. Structures can show the parent of a compound that is named as a salt.

For the assay, the target named is T1, recombinant JAK2 (Homo sapiens, UniProt O60674).
T1 construct: purchased Upstate Cell Signaling Solutions
The assay can be described thus: IC50 value determinations for Jak2 kinase, luminescence-based kinase assay (Kinase-Glo). It is filed as biochemical. As to conditions: Table 1. A general note: Kinase-Glo reads ATP consumption through a luciferase reaction.

T1 sequence (O60674 808-1132 limits assumed): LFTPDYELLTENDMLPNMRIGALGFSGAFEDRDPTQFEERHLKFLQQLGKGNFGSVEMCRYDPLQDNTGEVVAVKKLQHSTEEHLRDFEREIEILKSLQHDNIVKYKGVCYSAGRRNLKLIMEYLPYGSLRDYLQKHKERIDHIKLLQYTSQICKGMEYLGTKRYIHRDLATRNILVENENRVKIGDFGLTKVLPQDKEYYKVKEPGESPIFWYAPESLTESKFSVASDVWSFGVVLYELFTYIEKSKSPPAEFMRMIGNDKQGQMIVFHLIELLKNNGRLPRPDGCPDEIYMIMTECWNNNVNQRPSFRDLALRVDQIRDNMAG

The IC50 is the concentration needed to halve the response being measured. On to `Cc1cnc(Nc2ccc(CN3CCN(C)CC3)cc2)nc1Nc1cccc(S(=O)(=O)NC(C)(C)C)c1`, for which the concentration for half-maximal inhibition (IC50) turned out to be 29.8 nM.

Regarding `Cc1cnc(Nc2ccc(N3CCN(C)CC3)cc2)nc1Nc1cccc(NC(=O)Nc2cccc(C(F)(F)F)c2)c1` [1-(3-{5-Methyl-2-[4-(4-methyl-piperazin-1-yl)-phenylamino]-pyrimidin-4-ylamino}-phenyl)-3-(3-trifluoromethyl-phenyl)-urea], the IC50 was 126 nM.

With `Cc1cnc(Nc2ccc(N3CCN(C)CC3)cc2)nc1Nc1cccc(NC(=O)Nc2ccccc2)c1` [1-(3-{5-Methyl-2-[4-(4-methyl-piperazin-1-yl)-phenylamino]-pyrimidin-4-ylamino}-phenyl)-3-phenyl-urea], the IC50 was 63.6 nM.

For `CNS(=O)(=O)c1cc(Nc2nc(Nc3ccc(OCCN4CCCC4)cc3)ncc2C)ccc1C` [2,N-Dimethyl-5-{5-methyl-2-[4-(2-pyrrolidin-1-yl-ethoxy)-phenylamino]-pyrimidin-4-ylamino}-benzenesulfonamide], the IC50 is 127 nM.

Consider `CCOC(=O)c1cccc(Nc2nc(Nc3ccc(N4CCN(C)CC4)cc3)ncc2C)c1C` [2-Methyl-3-{5-methyl-2-[4-(4-methyl-piperazin-1-yl)-phenylamino]-pyrimidin-4-ylamino)-benzoic acid ethyl ester], for which the IC50 is 27.8 nM.

With `Cc1cnc(Nc2ccc(N3CCN(C)CC3)cc2)nc1Nc1cccc(C(N)=O)c1C` [2-Methyl-3-{5-methyl-2-[4-(4-methyl-piperazin-1-yl)-phenylamino]-pyrimidin-4-ylamino}-benzamide], the IC50 worked out at 26.2 nM.

Consider `Cc1cnc(Nc2ccc(N3CCN(C)CC3)cc2)nc1Nc1cccc(C2CCN(CCO)CC2)c1` [2-[4-(3-{5-Methyl-2-[4-(4-methyl-piperazin-1-yl)-phenylamino]-pyrimidin-4-ylamino}-phenyl)-piperidin-1-yl]-ethanol], for which the IC50 came out at 8.46 nM.

As for `COc1cc(Nc2nc(Nc3ccc(OCCO)cc3)ncc2C)ccc1Cl` [2-{4-[4-(4-Chloro-3-methoxy-phenylamino)-5-methyl-pyrimidin-2-ylamino]-phenoxy}-ethanol], the concentration for half-maximal inhibition (IC50) amounted to 9.14 nM.

Regarding `Cc1cnc(Nc2ccc(OCCO)nc2)nc1Nc1cccc2c1OCO2` [2-{5-[4-(Benzo[1,3]dioxol-4-ylamino)-5-methyl-pyrimidin-2-ylamino]-pyridin-2-yloxy}-ethanol], the IC50 was 116 nM.

In the case of `Cc1cnc(Nc2ccc(OCCN3CCCC3)cc2)nc1Nc1cccc(O)c1` [3-(2-(4-(2-(pyrrolidin-1-yl)ethoxy)phenylamino)-5-methylpyrimidin-4-ylamino)phenol Hydrochloride], the IC50 came to 203 nM.

Take `Cc1cnc(Nc2ccc(OC3CCNCC3)cc2)nc1Nc1cccc(O)c1` [3-(2-(4-(piperidin-4-yloxy)phenylamino)-5-methylpyrimidin-4-ylamino)phenol]: the IC50 was found to be 51.9 nM.

On to `CC(=O)N1CCN(c2ccc(Nc3ncc(C)c(Nc4cccc(S(=O)(=O)NC(C)(C)C)c4)n3)cc2C(F)(F)F)CC1` [3-[(2-{[4-(4-acetylpiperazin-1-yl)-3-(trifluoromethyl)phenyl]amino}-5-methylpyrimidin-4-yl)amino]-N-tert-butylbenzenesulfonamide], for which the IC50 was found to be 35.7 nM.

In the case of `CC(=O)N1CCN(c2ccc(Nc3ncc(C)c(Nc4cccc(S(=O)(=O)NC(C)(C)C)c4)n3)cc2)CC1` [3-{2-[4-(4-Acetyl-piperazin-1-yl)-phenylamino]-5-methyl-pyrimidin-4-ylamino}-N-tert-butyl-benzenesulfonamide], the IC50 amounted to 18.6 nM.

As for `Cc1cnc(Nc2ccc(OCCN3CCCC3)cc2)nc1Nc1cccc(S(N)(=O)=O)c1` [3-{5-Methyl-2-[4-(2-pyrrolidin-1-yl-ethoxy)-phenylamino]-pyrimidin-4-ylamino}-benzenesulfonamide], the half-maximal inhibitory concentration (IC50) is 72.2 nM.

Take `Cc1cnc(Nc2ccc(N3CCN(C)CC3)cc2)nc1Nc1cccc(S(=O)(=O)NC2CCNCC2)c1` [3-{5-Methyl-2-[4-(4-methyl-piperazin-1-yl)-phenylamino]-pyrimidin-4-ylamino}-N-piperidin-4-yl-benzenesulfonamide]: the IC50 was 543 nM.

For the molecule `Cc1cnc(Nc2ccc(N3CCN(C)CC3)cc2)nc1Nc1cccc(C(N)=O)c1` [3-{5-Methyl-2-[4-(4-methyl-piperazin-1-yl)-phenylamino]-pyrimidin-4-ylamino}-benzamide], the IC50 was determined as 23 nM.

Regarding `Cc1cnc(Nc2ccc(N3CCN(C)CC3)cc2)nc1Nc1cccc(S(N)(=O)=O)c1` [3-{5-Methyl-2-[4-(4-methyl-piperazin-1-yl)-phenylamino]-pyrimidin-4-ylamino}-benzenesulfonamide], the IC50 came to 13.6 nM.

Turning to `Cc1cnc(Nc2ccc(OCCN3CCCC3)cc2)nc1Nc1ccc(C#N)c(Cl)c1` [4-(2-(4-(2-(pyrrolidin-1-yl)ethoxy)phenylamino)-5-methylpyrimidin-4-ylamino)-2-chlorobenzonitrile Hydrochloride], the IC50 was found to be 67.5 nM.

Regarding `O=S(=O)(NCCN1CCCC1)c1ccc(Nc2nccc(Nc3cccc(O)c3)n2)cc1` [4-[4-(3-Hydroxy-phenylamino)-pyrimidin-2-ylamino]-N-(2-pyrrolidin-1-yl-ethyl)-benzenesulfonamide trifluoroacetate], the IC50 was determined as 3620 nM.

For the molecule `COc1cccc(Nc2ccnc(Nc3ccc(S(=O)(=O)NCCN4CCCC4)cc3)n2)c1` [4-[4-(3-Methoxy-phenylamino)-pyrimidin-2-ylamino]-N-(2-pyrrolidin-1-yl-ethyl)-benzenesulfonamide trifluoroacetate], the IC50 was 638 nM.

Turning to `O=S(=O)(NCCN1CCCC1)c1ccc(Nc2nccc(Nc3ccc(O)cc3)n2)cc1` [4-[4-(4-Hydroxy-phenylamino)-pyrimidin-2-ylamino]-N-(2-pyrrolidin-1-yl-ethyl)-benzenesulfonamide], the 50% inhibitory concentration (IC50) was 9740 nM.

For the molecule `COc1ccc(Nc2ccnc(Nc3ccc(S(=O)(=O)NCCN4CCCC4)cc3)n2)cc1` [4-[4-(4-Methoxy-phenylamino)-pyrimidin-2-ylamino]-N-(2-pyrrolidin-1-yl-ethyl)-benzenesulfonamide trifluoroacetate], the IC50 worked out at 10700 nM.

For `Cc1cnc(Nc2ccc(N3CCN(C)CC3)cc2)nc1Nc1cccc(C2CCNCC2)c1` [5-Methyl-N2-[4-(4-methyl-piperazin-1-yl)-phenyl]-N4-(3-piperidin-4-yl-phenyl)-pyrimidine-2,4-diamine], the IC50 was 42.5 nM.

For the molecule `Cc1cnc(Nc2ccc(N3CCN(C)CC3)cc2)nc1Nc1cccc(S(=O)(=O)N2CCCCC2C)c1` (stereo not shown) [5-Methyl-N2-[4-(4-methyl-piperazin-1-yl)-phenyl]-N4-[3-(2-methyl-piperidine-1-sulfony)-phenyl]-pyrimidine-2,4-diamine Hydrochloride], the IC50 came to 33.5 nM.

Take `Cc1cnc(Nc2ccc(N3CCN(C)CC3)cc2)nc1Nc1cccc(S(=O)(=O)N2CCOCC2)c1` [5-Methyl-N2-[4-(4-methyl-piperazin-1-yl)-phenyl]-N4-[3-(morpholine-4-sulfonyl)-phenyl]-pyrimidine-2,4-diamine]: the IC50 is 20.7 nM.

As to `Cc1cnc(Nc2ccc(N3CCN(C)CC3)cc2)nc1Nc1cccc(S(=O)(=O)N2CCCCC2)c1` [5-Methyl-N2-[4-(4-methyl-piperazin-1-yl)-phenyl]-N4-[3-(piperidine-1-sulfony)-phenyl]-pyrimidine-2,4-diamine Hydrochloride], the IC50 stood at 24.8 nM.

With `Cc1cnc(Nc2ccc(N3CCN(C)CC3)cc2)nc1Nc1cccc(S(=O)(=O)C2CCNCC2)c1` [5-Methyl-N2-[4-(4-methyl-piperazin-1-yl)-phenyl]-N4-[3-(piperidine-4-sulfonyl)-phenyl]-pyrimidine-2,4-diamine], the IC50 is 198 nM.

On to `Cc1cnc(Nc2ccc(N3CCN(C)CC3)cc2)nc1Nc1cccc(S(=O)(=O)N2CCCC2)c1` [5-Methyl-N2-[4-(4-methyl-piperazin-1-yl)-phenyl]-N4-[3-(pyrrolidine-1-sulfony)-phenyl]-pyrimidine-2,4-diamine Hydrochloride], for which the IC50 was 17.1 nM.

Take `Cc1cnc(Nc2ccc(OC3CCNCC3)cc2)nc1Nc1cccc(C(F)(F)F)c1C` [5-Methyl-N4-(2-methyl-3-trifluoromethyl-phenyl)-N2-[4-(piperidin-4-yloxy)-phenyl]-pyrimidine-2,4-diamine]: the IC50 was found to be 52.9 nM.

`Cc1cnc(Nc2ccc(OCCN3CCCC3)cc2)nc1Nc1ccccc1` [5-Methyl-N4-phenyl-N2-[4-(2-pyrrolidin-1-yl-ethoxy)-phenyl]-pyrimidine-2,4-diamine]: the IC50 amounted to 16.7 nM.

`COC(=O)c1cc(Nc2ncc(C)c(Nc3ccc(Cl)c(OC)c3)n2)ccc1N1CCNCC1` [5-[4-(4-Chloro-3-methoxy-phenylamino)-5-methyl-pyrimidin-2-ylamino]-2-piperazin-1-yl-benzoic acid methyl ester]: the 50% inhibitory concentration (IC50) is 5.12 nM.

`COC(=O)c1cc(Nc2ncc(C)c(Nc3cccc4c3OCO4)n2)ccc1OCCN1CCCC1` [5-[4-(Benzo[1,3]dioxol-4-ylamino)-5-methyl-pyrimidin-2-ylamino]-2-(2-pyrrolidin-1-yl-ethoxy)-benzoic acid methyl ester]: the IC50 came to 16.4 nM.

Turning to `Cc1cnc(Nc2ccc(N3CCN(C)CC3)cc2)nc1Nc1cccc(S(C)(=O)=O)c1` [5-methyl-N2-(4-(4-methylpiperazin-1-yl)phenyl)-N4-(3-(methylsulfonyl)phenyl) pyrimidine-2,4-diamine], the IC50 came out at 215 nM.

In the case of `Cc1cnc(Nc2ccc(N3CCN(C)CC3)cc2)nc1Nc1cccc(N2CCCCC2)c1` [5-methyl-N2-(4-(4-methylpiperazin-1-yl)phenyl)-N4-(3-(piperidin-1-yl)phenyl)pyrimidine-2,4-diamine], the IC50 turned out to be 46.3 nM.

With `CCCS(=O)(=O)c1cccc(Nc2nc(Nc3ccc(N4CCN(C)CC4)cc3)ncc2C)c1` [5-methyl-N2-(4-(4-methylpiperazin-1-yl)phenyl)-N4-(3-(propylsulfonyl)phenyl) pyrimidine-2,4-diamine], the IC50 was 8 nM.

`Cc1cnc(Nc2ccc(N3CCN(C)CC3)cc2)nc1Nc1cccc(C)c1C` [5-methyl-N4-(2,3-dimethylphenyl)-N2-(4-(4-methylpiperazin-1-yl)phenyl)pyrimidine-2,4-diamine Hydrochloride]: the IC50 turned out to be 16 nM.

For the molecule `Cc1cnc(Nc2ccc(OC3CCNCC3)cc2)nc1Nc1cccc(C)c1C` [5-methyl-N4-(2,3-dimethylphenyl)-N2-(4-(piperidin-4-yloxy)phenyl)pyrimidine-2,4-diamine Hydrochloride], the concentration for half-maximal inhibition (IC50) stood at 4.38 nM.
